Experimental data reported in US10112918B2, “15-oxospiramilactone derivatives, preparation method and uses thereof” (Kunming Institute of Botany, The Chinese Academy of Sciences, priority 2013, dated 2018).

Key:
Type in all cases: cell-based
[1] = tested on: HL-60 (human promyelocytic leukemia cells); assay: MTT inhibition of tumor cell growth, HL-60; conditions: Homo sapiens, HL-60, Table 7 (first), alkaloid derivatives, 48 h
Outline: (§1)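 Cells seeded at 5000-10000/well in DMEM or RPMI1640 with 10% FBS, exposed 48 h at 37 °C to compound (40 μM primary screen; 5-concentration re-screen for ~50% inhibitors), triplicates. MTT added 4 h, formazan dissolved in 10% SDS overnight, A595 read; IC50 by Reed-Muench two-point method.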

[2] = tested on: SMMC-7721 (human hepatoma cells); assay: MTT inhibition of tumor cell growth, SMMC-7721; conditions: Homo sapiens, SMMC-7721, Table 7 (first), alkaloid derivatives, 48 h
Outline: as §1

[3] = tested on: A-549 (Human lung adenocarcinoma cells); assay: MTT inhibition of tumor cell growth, A-549; conditions: Homo sapiens, A549, Table 7 (first), alkaloid derivatives, 48 h
Outline: as §1

[4] = tested on: MCF-7 (human breast cancer cells); assay: MTT inhibition of tumor cell growth, MCF-7; conditions: Homo sapiens, MCF7, Table 7 (first), alkaloid derivatives, 48 h
Outline: as §1

[5] = tested on: SW-480 (human colon cancer cells); assay: MTT inhibition of tumor cell growth, SW-480; conditions: Homo sapiens, SW480, Table 7 (first), alkaloid derivatives, 48 h, read-out: IC50 SW-480
Outline: as §1

[6] = tested on: Wnt signaling pathway (Top-Flash reporter gene); assay: Top-Flash Wnt reporter gene assay in HEK293T cells with Wnt3a conditioned medium; conditions: Homo sapiens, HEK-293T, 6 h, read-out: IC50 (μM), inhibitory activity on the Wnt signaling pathway
Outline: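 HEK293T transfected with TOP-flash (5 ng/well) plus GFP plasmid for normalization, then treated 6 h with mouse Wnt3a conditioned medium from L cells, with or without compound. GFP-normalized luciferase minus DMSO-only background, scaled to Wnt-induced activity; IC50 at 0.5 relative residual activity from 4-parameter logistic fit.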

C=C1C(=O)[C@@]23CC[C@@H](CC2[C@@]24CCC[C@@](C)(CN(CCO)C2)C14)C(=C)[C@@H]3O (stereo partly drawn) [Compound 89]
IC50 [1]: 4.82 µM | IC50 [2]: 1.48 µM | IC50 [3]: 3.04 µM | IC50 [4]: 6.98 µM | IC50 [5]: 9.84 µM | IC50 [6]: 8.34 ± 0.9 µM

C=C1C(=O)[C@]23CC[C@H]1CC2[C@@]12CCC[C@@](C)(CN(CCO)C1)C2CC3=O (stereo partly drawn) [Compound 91]
IC50 [1]: 14.3 µM | IC50 [2]: 15.2 µM | IC50 [3]: 9.24 µM | IC50 [4]: 15.7 µM | IC50 [5]: 11.8 µM | IC50 [6]: 49.4 ± 1.42 µM

C=C1C(=O)[C@@]23CC[C@@H](CC2[C@@]24CCC[C@@](C)(CN(CCO)C2)C14)C(=C)C3=O (stereo partly drawn) [Compound 93]
IC50 [1]: 6.61 µM | IC50 [2]: 11.5 µM | IC50 [3]: 6.5 µM | IC50 [4]: 3.57 µM | IC50 [5]: 2.81 µM | IC50 [6]: 17 ± 1.28 µM
